{
  "source": "patent US20160081980A1",
  "about": "“Composition Comprising AMD3100 For Preventing or Treating Bone Diseases” (KYUNGPOOK NATIONAL UNIVERSITY INDUSTRY-ACADEMIC COOPERATION …, priority 2013, published 2016)",
  "key": {"[1]": {"tested_on": "SDF-1", "conditions": "AMD3100 5 mg/kg/day intraperitoneal for 21 days vs PBS"}, "[2]": {"tested_on": "Osteocalcin, PTHR1, Osterix, Runx2", "conditions": "bone marrow of OVX and control mice, real-time PCR; FIG. 4"}, "[3]": {"tested_on": "OVX mice", "conditions": "AMD3100-treated OVX mice compared to PBS-treated OVX mice, 21 days; FIG. 5", "description": "12-week-old female C57BL/6 mice were purchased from Jackson Laboratory (Bar Harbor, ME). Mice were housed in an air-conditioned room with a 12 hour light/dark cycle at a temperature of 22±2° C. and humidity of 45-65%, and given free access to food and tap water. Mice underwent either sham surgery or ovariectomy (OVX) at 12 weeks of age and were sacrificed at 16 weeks of age. One week after surgery, sham-operated and OVX mice received an intraperitoneal injection with AMD3100 (Sigma-Aldrich #A5602, St. Louis, Mo., sigma Aldrich.com) (5 mg/kg/day) or PBS for 21 days. At the end of treatment, the mice were sacrificed, and blood samples were collected by cardiac puncture for the colony-forming unit (CFU) assay.\nSingle-cell suspensions of peripheral blood (PB) after ammonium chloride lysis were plated into 35 mm dishes (3×10^5 cells/plate) with MethoCult GF M3434 (StemCell Technologies). Hematopoietic colonies were counted and scored after incubation for 12-14 days at 37° C., 5% CO2, as instructed by the manufacturer.\nIn order to determine whether AMD3100 may mobilize HSPCs from bone marrow in OVX mice, AMD3100 or PBS was administered to OVX mice for 21 days."}, "[4]": {"tested_on": "OVX mice", "conditions": "AMD3100-treated vs PBS-treated OVX mice; did not reach statistical significance; FIGS. 6 & 7", "description": "12-week-old female C57BL/6 mice were purchased from Jackson Laboratory (Bar Harbor, ME). Mice were housed in an air-conditioned room with a 12 hour light/dark cycle at a temperature of 22±2° C. and humidity of 45-65%, and given free access to food and tap water. Mice underwent either sham surgery or ovariectomy (OVX) at 12 weeks of age and were sacrificed at 16 weeks of age. One week after surgery, sham-operated and OVX mice received an intraperitoneal injection with AMD3100 (Sigma-Aldrich #A5602, St. Louis, Mo., sigma Aldrich.com) (5 mg/kg/day) or PBS for 21 days. At the end of treatment, the mice were sacrificed, and blood samples were collected by cardiac puncture for the colony-forming unit (CFU) assay. Femora were removed, fixed with 4% paraformaldehyde in phosphate-buffered physiological saline solution (pH 7.4) for 16 hours, and then stored at 4° C. in 80% ethanol for measurement of bone density.\nBone marrow cells from the femurs and tibias were collected by flushing with 20 ml PBS passed through a 25-gauge needle. After centrifugation at 1,300 rpm for 5 minutes, the supernatant was removed and the cells were then washed by ammonium chloride lysis. […]"}, "[5]": {"tested_on": "OVX mice", "conditions": "AMD3100-treated vs PBS-treated OVX mice"}, "[6]": {"tested_on": "BM-derived macrophages", "conditions": "RANKL 100 ng/ml, M-CSF 30 ng/ml, AMD3100 25 mg/ml for 3 days; FIG. 10", "description": "Total RNA was extracted from BM cultures treated with or without RANKL in the presence or absence of AMD3100 (25 g/ml) for 3 days. […] RNA samples were extracted from whole bone marrow (BM) cells of four individual animals per group and isolated from the cultured cells using the RNeasy Mini kit (Qiagen, Hilden, Germany), and the concentration was determined using a Nanodrop ND-1000 spectrophotometer. A total of 5 mg of each RNA was converted to cDNA using the sprint RT complete-oligo (dT) 18 (Clontech, MountainView, Calif., www.clontech.com) according to the manufacturer's guide. The cDNA was quantified using the QuantiTect SYBR Green PCR Kit (Qiagen). The following reaction components were added to each investigated transcript to the indicated end-concentration: forward primer (5 pM), reverse primer (5 pM), and QuantiTect SYBR Green PCR Master mix. The 10 μl master-mix was added to a 0.1 ml tube, and 5 μl volume, containing 100 ng reverse transcribed total RNA, was added as polymerase chain reaction (PCR) template. The tubes were closed, centrifuged, and placed into the Corbett research RG-6000 real-time PCR machine (Corbett LifeScience, Sydney, Australia). The following primers were used: Bone marrow cells were obtained from the femurs and tibias of seven-week-old mice. The bone marrow suspension was added to plates along with macrophage colony stimulating factor (M-CSF; 30 ng/ml). […]"}, "[7]": {"tested_on": "OVX mice"}},
  "data": [
    {"compound": "c1cc(CN2CCCNCCNCCCNCC2)ccc1CN1CCCNCCNCCCNCC1", "note": "[AMD3100, 1,1′-[1,4-Phenylenebis(methylene)]bis[1,4,8,1]-tetraazacyclotetradecanel]", "values": [
      {"measurement": "levels of functional SDF-1 in bone marrow", "setting": "[1]; bone marrow supernatant, FIG. 2", "result": "decreased"},
      {"measurement": "levels of functional SDF-1 in plasma", "setting": "[1]; plasma, FIG. 3", "result": "increased"},
      {"measurement": "levels of osteoblast lineage-specific genes (Osteocalcin, PTHR1, Osterix, Runx2)", "setting": "[2]", "result": "no significant differences"},
      {"measurement": "number of CFU cells in blood", "setting": "[3]", "result": "significant increase"},
      {"measurement": "percentage of Lin-Sca-1+c-Kit+ (LSK) cells in bone marrow", "setting": "[4]", "result": "decrease"},
      {"measurement": "bone density in micro-CT images of the distal femur", "setting": "[5]; FIG. 8", "result": "increased bone density"},
      {"measurement": "bone mineral density (BMD)", "setting": "[5]; FIG. 9", "result": "increase"},
      {"measurement": "osteoclast differentiation (expression of genes associated with osteoclast differentiation)", "setting": "[6]", "result": "did not affect osteoclast differentiation"},
      {"measurement": "osteoblast number/bone surface [N.Ob/BS (/mm)]", "setting": "[7]; H&E staining, AMD3100 treatment groups, FIG. 13", "result": "did not change significantly"},
      {"measurement": "number and size of TRAP+ active osteoclasts in the trabecular region", "setting": "[7]; TRAP staining, AMD3100-treated OVX mice, FIG. 11", "result": "decrease"},
      {"measurement": "osteoclast number/bone surface [N.Oc/BS (/mm)]", "setting": "[7]; histomorphometry, AMD3100-treated vs PBS-treated OVX mice, FIG. 12", "result": "decrease"}
    ]}
  ]
}
